Experimental data from patent US20260167927A1, “GLOMUS CELL-LIKE CELLS AND PRODUCTION METHOD THEREOF” (NATIONAL INSTITUTE OF ADVANCED INDUSTRIAL SCIENCE AND …, priority 2022, published 2026).

Test system: glomus cell-like cells
Assay: ATP production by glomus cell-like cells in response to hypoxic stimulation with ion channel inhibitors
Assay type: cell-based, human
Settings: for effect on ATP production in response to hypoxic stimulation: 2% O2, 10 to 30 minutes, vs KRB without inhibitor
Description: Glomus cell-like cells on days 16 to 19 of induction were used. With Krebs-Ringer buffer (KRB: 120 mM of NaCl, 5 mM of KCI, 25 mM of NaHCO3, 2.5 mM of CaCI2, 1.1 mM of MgCl2, 0.1% bovine serum albumin, 2.8 mM of glucose, pH 7.2), glomus cell-like cells were washed twice. After adding KRB, the cells were incubated in a hypoxic CO2 incubator (2% O2) for 10 to 30 minutes. The supernatant was collected, and then ATP was measured using the ATP Determination Kit (Thermo Fisher Scientific: A22066). Cells were lysed in RIPA buffer (FUJIFILM Wako Pure Chemical Corporation: 182-02451), and the total protein content was determined using a Pierce™ BCA Protein Assay Kit (Thermo Fisher Scientific: 23225). ATP measurement results were corrected according to the total protein content.
Using KRB containing the K^+ channel inhibitor tetraethylammonium chloride (FUJIFILM Wako Pure Chemical Corporation: 206-04501) (final concentration: 5 mM), the Ca^2+ channel inhibitor nifedipine (FUJIFILM Wako Pure Chemical Corporation: 141-05783) (final concentration: 5 μM), or the Na^+ channel inhibitor lidocaine (FUJIFILM Wako Pure Chemical Corporation: 120-02691) (final concentration: 1 μM), cells were subjected to hypoxic stimulation using the procedure described in (3-1) above, and the amount of ATP production was analyzed. KRB without ion channel inhibitors was used as a control to analyze ATP production similarly.

Compound: CCN(CC)CC(=O)Nc1c(C)cccc1C [lidocaine, Lidocaine]
- effect on ATP production in response to hypoxic stimulation (lidocaine 1 μM in KRB): inhibitory effect

Compound: CC[N+](CC)(CC)CC.[Cl-] [tetraethylammonium chloride]
- effect on ATP production in response to hypoxic stimulation (tetraethylammonium chloride 5 mM in KRB): promoting effect

Compound: apyrase
- ATP detected after hypoxic stimulation (apyrase (ATPase) 2 U/mL added, FIG. 11): no ATP was detected
